We go through 34 compounds from ChEMBL document CHEMBL1155997, “Design and synthesis of novel substituted quinazoline derivatives as antileishmanial agents” (Bioorg Med Chem Lett, 2009).

Converted amounts (≈) assume the structure as drawn. The source made the active and inactive calls. The rule behind the calls is not given here.

Experiment [1] relates to Leishmania donovani. Kind of experiment: Antileishmanial activity against Leishmania donovani in luciferase-promastigote system at 10 ug/ml. It is filed as functional.
The subject of experiment [2] is Leishmania donovani. Kind of experiment: Antileishmanial activity against Leishmania donovani in luciferase-amastigote system. It is filed as functional, organism-based.

In general, inhibition refers to the change of the read-out against control, counted positive when it falls. The IC50 is the midpoint of a concentration-inhibition curve. Lower therefore signals greater potency.

As to `c1ccc(C2NC(N3CCCC3)=NC3=C2CCc2ccccc23)cc1` (configuration not stated), the inhibition at 10 µg/mL in the experiment on Leishmania donovani [1] stood at 99.8%.

Consider `Clc1ccc(C2NC(N3CCN(c4ccccn4)CC3)=NC3=C2CCc2ccccc23)cc1` (configuration not stated), for which the half-inhibitory concentration (IC50) with Leishmania donovani [2] turned out to be 2.65 µg/mL (≈ 5.81 µM). Further, in the experiment on Leishmania donovani [1], the inhibition at 10 µg/mL was determined as 99.9%.

In the case of `Clc1ccc(-c2nc(N3CCN(c4ccccn4)CC3)nc3c2CCc2ccccc2-3)c(Cl)c1`, the inhibition at 10 µg/mL in the experiment with Leishmania donovani [1] came to 15.7%.

Compound `Clc1ccc(C2NC(N3CCOCC3)=NC3=C2CCc2ccccc23)cc1` (configuration not stated) returned a 50% inhibitory concentration (IC50) with Leishmania donovani [2] of 5.2 µg/mL (≈ 13.7 µM). Further, at 10 µg/mL the inhibition in the experiment on Leishmania donovani [1] was 98.7%.

Regarding `Clc1ccc(C2NC(N3CCCC3)=NC3=C2CCc2ccccc23)c(Cl)c1` (configuration not stated), at 10 µg/mL the inhibition in the experiment with Leishmania donovani [1] was 99.8%.

Take `Fc1ccc(C2NC(N3CCN(c4ccccn4)CC3)=NC3=C2CCc2ccccc23)cc1` (configuration not stated): the IC50 with Leishmania donovani [2] was 3.58 µg/mL (≈ 8.14 µM). In the experiment with Leishmania donovani [1], this compound showed an inhibition at 10 µg/mL of 68.2%.

In the case of `c1ccc(-c2nc(N3CCCC3)nc3c2CCc2ccccc2-3)cc1`, the inhibition at 10 µg/mL in the experiment on Leishmania donovani [1] is 74.7%.

On to `Clc1ccc(-c2nc(N3CCN(c4ccccn4)CC3)nc3c2CCc2ccccc2-3)cc1`, for which at 10 µg/mL the inhibition in the experiment with Leishmania donovani [1] was 51.4%.

Turning to `c1ccc(-c2nc(N3CCN(c4ccccn4)CC3)nc3c2CCc2ccccc2-3)cc1`, the inhibition at 10 µg/mL in the experiment on Leishmania donovani [1] is 62.2%.

As to `Fc1ccc(C2NC(N3CCCCC3)=NC3=C2CCc2ccccc23)cc1` (configuration not stated), it took 3.22 µg/mL (≈ 8.91 µM) to reach half-maximal inhibition in the experiment with Leishmania donovani [2] (IC50). In the experiment on Leishmania donovani [1], this compound registered an inhibition at 10 µg/mL of 99.9%.

For `c1ccc(C2NC(N3CCCCC3)=NC3=C2CCc2ccccc23)cc1` (configuration not stated), half-maximal inhibition with Leishmania donovani [2] (IC50) required 3.48 µg/mL (≈ 10.1 µM). The compound also displayed an inhibition at 10 µg/mL in the experiment with Leishmania donovani [1] of 99.8%.

In turn, `Clc1ccc(C2NC(N3CCCC3)=NC3=C2CCc2ccccc23)cc1` (configuration not stated) yielded a 50% inhibitory concentration (IC50) with Leishmania donovani [2] of 8.95 µg/mL (≈ 24.6 µM). In addition, the inhibition at 10 µg/mL in the experiment on Leishmania donovani [1] stood at 96.3%.

With `Clc1ccc(C2NC(N3CCN(c4ccccn4)CC3)=NC3=C2CCc2ccccc23)c(Cl)c1` (configuration not stated), half-maximal inhibition with Leishmania donovani [2] (IC50) required 6.33 µg/mL (≈ 12.9 µM). Testing at 10 µg/mL in the experiment on Leishmania donovani [1] gave an inhibition of 99.9%.

On to `Fc1ccc(C2NC(N3CCCC3)=NC3=C2CCc2ccccc23)cc1` (configuration not stated), for which the half-maximal inhibitory concentration (IC50) in the experiment with Leishmania donovani [2] worked out at 4.07 µg/mL (≈ 11.7 µM). This compound yielded an inhibition at 10 µg/mL with Leishmania donovani [1] of 99.9%.

In the experiment on Leishmania donovani [1], `N=C(N)c1ccc(OCCCCCOc2ccc(C(=N)N)cc2)cc1` [PENTAMIDINE] returned an inhibition at 10 µg/mL of 100%.

“D-gluconic acid, 2,4:2',4'-O-[oxybis-oxidostibylidyne]bis-, trisodium salt, nonahydrate”: the inhibition entry with Leishmania donovani [1] was “inactive”.

Consider `Clc1ccc(C2NC(N3CCCCC3)=NC3=C2CCc2ccccc23)cc1` (configuration not stated), for which at 10 µg/mL the inhibition in the experiment with Leishmania donovani [1] was 99.6%.

In the experiment on Leishmania donovani [1], `c1ccc(C2NC(N3CCOCC3)=NC3=C2CCc2ccccc23)cc1` (configuration not stated) gave an inhibition at 10 µg/mL of 99.9%.

Consider `Clc1ccc(-c2nc(N3CCCCC3)nc3c2CCc2ccccc2-3)cc1`, for which 10 µg/mL produced 53.5% inhibition in the experiment with Leishmania donovani [1].

Consider `Fc1ccc(-c2nc(N3CCOCC3)nc3c2CCc2ccccc2-3)cc1`, for which, in the experiment on Leishmania donovani [1], the inhibition at 10 µg/mL is 64.8%.

`Clc1ccc(-c2nc(N3CCOCC3)nc3c2CCc2ccccc2-3)c(Cl)c1` displayed an inhibition at 10 µg/mL in the experiment on Leishmania donovani [1] of 93.1%.

`c1ccc(-c2nc(N3CCOCC3)nc3c2CCc2ccccc2-3)cc1` showed an inhibition at 10 µg/mL in the experiment with Leishmania donovani [1] of 71.5%.

As to `Clc1ccc(-c2nc(N3CCCC3)nc3c2CCc2ccccc2-3)c(Cl)c1`, in the experiment on Leishmania donovani [1], the inhibition at 10 µg/mL was determined as 77.9%.

In the case of `Fc1ccc(-c2nc(N3CCN(c4ccccn4)CC3)nc3c2CCc2ccccc2-3)cc1`, the inhibition at 10 µg/mL in the experiment with Leishmania donovani [1] worked out at 44.9%.

`Clc1ccc(-c2nc(N3CCCC3)nc3c2CCc2ccccc2-3)cc1` gave an inhibition at 10 µg/mL in the experiment with Leishmania donovani [1] of 58.3%.

As to `Clc1ccc(C2NC(N3CCCCC3)=NC3=C2CCc2ccccc23)c(Cl)c1` (configuration not stated), in the experiment with Leishmania donovani [1], the inhibition at 10 µg/mL was 99.7%.

`Clc1ccc(-c2nc(N3CCOCC3)nc3c2CCc2ccccc2-3)cc1` had an inhibition at 10 µg/mL in the experiment on Leishmania donovani [1] of 74.8%.

Turning to `Clc1ccc(-c2nc(N3CCCCC3)nc3c2CCc2ccccc2-3)c(Cl)c1`, at 10 µg/mL the inhibition in the experiment with Leishmania donovani [1] was 95.2%.

Consider `Fc1ccc(-c2nc(N3CCCC3)nc3c2CCc2ccccc2-3)cc1`, for which at 10 µg/mL the inhibition in the experiment with Leishmania donovani [1] was 61.8%.

For `c1ccc(C2NC(N3CCN(c4ccccn4)CC3)=NC3=C2CCc2ccccc23)cc1` (configuration not stated), in the experiment on Leishmania donovani [1], the inhibition at 10 µg/mL was determined as 99.4%.

In the experiment on Leishmania donovani [1], `Clc1ccc(C2NC(N3CCOCC3)=NC3=C2CCc2ccccc23)c(Cl)c1` (configuration not stated) returned an inhibition at 10 µg/mL of 99.7%.

In the experiment on Leishmania donovani [1], `Fc1ccc(C2NC(N3CCOCC3)=NC3=C2CCc2ccccc23)cc1` (configuration not stated) returned an inhibition at 10 µg/mL of 99.6%.

For `c1ccc(-c2nc(N3CCCCC3)nc3c2CCc2ccccc2-3)cc1`, the inhibition at 10 µg/mL in the experiment on Leishmania donovani [1] came to 91.8%.

Consider `Fc1ccc(-c2nc(N3CCCCC3)nc3c2CCc2ccccc2-3)cc1`, for which testing at 10 µg/mL with Leishmania donovani [1] gave an inhibition of 47.8%.
